Read-outs that look alike come from different tables or passages of the source. Values belong to the molecule of their own block, whether it stands above or below them.
What was measured:
[1] = tested on: T1, Trametes villosa laccase (TvL); assay: absorbance increase at […] nm; type: biochemical; settings: sodium tartrate pH 4.0; crude commercial enzyme; assigned by order of preceding sentence and Figure 2A-C
T1 construct: gene LCC1; crude commercial laccase preparation, Novozymes

R2 LRPL [2] = target: T2, R2 LRPL (Thermothelomyces thermophilus, UniProt G2QG31); assay: endpoint absorbance increase at […] nm; type: biochemical; settings: 250 μM sinapic acid; tartrate pH 4.0; yeast supernatant
T2 construct: gene lcc1; secreted by S. cerevisiae, crude supernatant

[3] = tested on: T1, Trametes villosa laccase (TvL); assay: absorbance increase at […] nm; type: biochemical; settings: sodium tartrate pH 4.0; crude commercial enzyme
R2 LRPL [4] = target: T2, R2 LRPL; assay: endpoint absorbance increase at […] nm; type: biochemical; settings: 2 mM acetosyringone; tartrate pH 4.0; yeast supernatant
[5] = tested on: T3, Trametes villosa laccase (TvL); settings: sodium tartrate pH 4.0; crude commercial enzyme
T3 construct: gene LCC1

T2 sequence (G2QG31 entry or part of it): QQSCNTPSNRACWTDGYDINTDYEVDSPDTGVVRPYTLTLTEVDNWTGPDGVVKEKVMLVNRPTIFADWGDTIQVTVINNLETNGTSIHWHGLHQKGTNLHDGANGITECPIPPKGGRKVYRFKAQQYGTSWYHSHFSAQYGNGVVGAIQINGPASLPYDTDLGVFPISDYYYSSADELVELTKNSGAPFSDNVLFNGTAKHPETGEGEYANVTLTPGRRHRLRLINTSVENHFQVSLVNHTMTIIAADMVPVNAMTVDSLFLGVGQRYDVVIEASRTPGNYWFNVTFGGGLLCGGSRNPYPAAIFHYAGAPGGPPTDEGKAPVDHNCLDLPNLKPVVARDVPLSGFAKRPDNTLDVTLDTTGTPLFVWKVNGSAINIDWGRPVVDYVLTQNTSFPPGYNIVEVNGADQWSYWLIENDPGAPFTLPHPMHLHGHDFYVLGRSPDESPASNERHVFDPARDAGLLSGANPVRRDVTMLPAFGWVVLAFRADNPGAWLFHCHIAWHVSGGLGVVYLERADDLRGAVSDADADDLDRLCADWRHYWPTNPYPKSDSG

Km [1]: 120 µM
SMILES: COc1cc(C=O)cc(OC)c1O [syringaldehyde, 3,5-dimethoxy-4-hydroxybenzaldehyde]

Km [3]: 85 µM
SMILES: COc1cc(/C=C/C(=O)O)cc(OC)c1O [sinapic acid]
endpoint absorbance increase at 512 nm (R2 LRPL [2]): colored responses were linear (absorbance increased with increasing volumes of supernatant) with both laccases

Km [5]: 93 µM
SMILES: COc1cc(C(C)=O)cc(OC)c1O [acetosyringone, 3′,5′-dimethoxy-4′-hydroxyacetophenone]
endpoint absorbance increase at 520 nm (R2 LRPL [4]): colored responses were linear (absorbance increased with increasing volumes of supernatant) with both laccases
